Source: PMC11855827, “High-Throughput Screening of Five Compound Libraries for Anthelmintic Activity and Toxicity Leads to the Discovery of Two Flavonoid Compounds” (International Journal of Molecular Sciences, 2025)
Like-named read-outs stand apart in the source and are kept apart here.

Tested on: C. elegans
Test: microbe, parasite or virus in culture
Settings: Caenorhabditis elegans
[1] = 0 h, read-out: Percentage of motility inhibition 0 h, Table S2, C. elegans SS assay, 110 μM, 0 h, averages of 4 data points
[2] = 24 h, read-out: Percentage of motility inhibition 24 h, Table S2, C. elegans SS assay, 110 μM, 24 h, averages of 4 data points
[3] = 0 h, read-out: Percentage of motility inhibition 0 h
[4] = 24 h, read-out: Percentage of motility inhibition 24 h

In the case of `C=C(C)[C@@H]1CC[C@]2(C)CC[C@]3(C)[C@H](CC[C@@H]4[C@@]5(C)CCC(=O)C(C)(C)[C@@H]5CC[C@]43C)[C@@H]12` [Lupenone], the inhibition at 110 µM [1] is reported as 25% and the inhibition at 110 µM [2] is reported as 17%.
For `O=C(CO)[C@@H](O)[C@H](O)[C@H](O)CO` [Fructose], the inhibition at 110 µM [1] was 0% and the inhibition at 110 µM [2] was 3%.
Work on `CN1CC[C@]23C(=O)C[C@H]4C(=CCO[C@H]5CC(=O)N(c6c(O)cccc62)[C@H]3[C@H]54)C1` [Vomicine] yielded an inhibition at 110 µM [1] of 0% and an inhibition at 110 µM [2] of 0%.
Work on `NCCS(=O)(=O)O` [Taurine] yielded an inhibition at 110 µM [1] of 8% and an inhibition at 110 µM [2] of 0%.
`CC(C)CCC[C@@H](C)[C@H]1CC[C@H]2[C@@H]3CC=C4C[C@@H](O)CC[C@]4(C)[C@H]3CC[C@]12C` [Cholesterol] gave an inhibition at 110 µM [1] of 24% and an inhibition at 110 µM [2] of 17%.
`CC(C)C1=Cc2ccc3c(c2C(=O)C1=O)CCCC3(C)C` [Miltirone] showed an inhibition at 110 µM [1] of 0% and an inhibition at 110 µM [2] of 36%.
`CC(C)=CCc1c(O)ccc(C(=O)/C=C/c2ccc(O)cc2)c1O` [Isobavachalcone] showed an inhibition at 110 µM [1] of 6% and an inhibition at 110 µM [2] of 15%.
`COc1c(O)cc2oc(-c3ccc(O)cc3)cc(=O)c2c1O` [Hispidulin] showed an inhibition at 110 µM [3] of 0% and an inhibition at 110 µM [4] of 33%.
`Cc1coc2c1C(=O)C(=O)c1c-2ccc2c(C)cccc12` [Tanshinone I] was tested, and the inhibition at 110 µM [1] was 0% and the inhibition at 110 µM [2] was 3%.
`Cc1nc(C(F)(F)F)c(C(=O)Nc2c(Br)cc(OC(F)(F)F)cc2Br)s1` [Thifluzamide] was tested, and the inhibition at 110 µM [1] was 69% and the inhibition at 110 µM [2] was 29%.
Compound `Cc1cc(=O)oc2cc(O)ccc12` [4-Methylumbelliferone] has an inhibition at 110 µM [1] of 4% and an inhibition at 110 µM [2] of 3%.
In the case of `Nc1nc2c(nc(O)n2[C@@H]2O[C@H](CO)[C@@H](O)[C@H]2O)c(=O)[nH]1` [8‐Hydroxyguanosine], the inhibition at 110 µM [1] is reported as 14% and the inhibition at 110 µM [2] is reported as 4%.
With `CC(=O)C1=C(O)[C@@H]2[C@H]3c4c[nH]c5cccc(c45)C[C@H]3C(C)(C)N2C1=O` [Cyclopiazonic acid] the inhibition at 110 µM [1] was 6% and the inhibition at 110 µM [2] was 2%.
With `N[C@@H](Cc1c[nH]c2ccc(O)cc12)C(=O)O` [5-Hydroxytryptophan] the inhibition at 110 µM [1] was 28% and the inhibition at 110 µM [2] was 12%.
With `O=C(O)CCCCC1CCSS1` (stereo not drawn) [α-Lipoic Acid] the inhibition at 110 µM [1] was 9% and the inhibition at 110 µM [2] was 3%.
Compound `CCOC(=O)CCC(=O)O[C@H]1[C@H](O[C@@H]2[C@@H](C)[C@H](O[C@H]3C[C@@](C)(OC)[C@@H](O)[C@H](C)O3)[C@@H](C)C(=O)O[C@H](CC)[C@@](C)(O)[C@H](O)[C@@H](C)C(=O)[C@H](C)C[C@@]2(C)O)O[C@H](C)C[C@@H]1N(C)C` [Erythromycin Ethylsuccinate] has an inhibition at 110 µM [1] of 24% and an inhibition at 110 µM [2] of 7%.
With `CC1(C)C[C@H]2C3=CC[C@@H]4[C@@]5(C)CC[C@H](O)[C@](C)(CO)[C@@H]5CC[C@@]4(C)[C@]3(C)CC[C@@]2(C)[C@H](O)[C@@H]1O` [Soyasapogenol A] the inhibition at 110 µM [1] was 5% and the inhibition at 110 µM [2] was 3%.
With `O=C(O)[C@H]1O[C@@H](Oc2cc3oc(-c4ccc(O)cc4)cc(=O)c3c(O)c2O)[C@H](O)[C@@H](O)[C@@H]1O` [Scutellarin] the inhibition at 110 µM [1] was 31% and the inhibition at 110 µM [2] was 1%.
With `O=C1C[C@@H](c2ccccc2)Oc2cc(O)cc(O)c21` [Pinocembrin] the inhibition at 110 µM [1] was 44% and the inhibition at 110 µM [2] was 5%.
`CO[C@H]1/C=C/O[C@@]2(C)Oc3c(C)c(O)c4c(O)c(c5c(nc6cc(C)ccn65)c4c3C2=O)NC(=O)/C(C)=C\C=C\[C@H](C)[C@H](O)[C@@H](C)[C@@H](O)[C@@H](C)[C@H](OC(C)=O)[C@@H]1C` [Rifaximin] gave an inhibition at 110 µM [1] of 7% and an inhibition at 110 µM [2] of 1%.
For `C/C=C(\C)C(=O)O[C@H]1C[C@@H](OC(C)=O)[C@@]2(C(=O)OC)CO[C@H]3[C@@H](O)[C@@](C)([C@]45O[C@@]4(C)[C@H]4C[C@@H]5O[C@@H]5OC=C[C@@]54O)[C@H]4[C@]1(CO[C@]4(O)C(=O)OC)[C@@H]32` [Azadirachtin], the inhibition at 110 µM [1] was 24% and the inhibition at 110 µM [2] was 4%.
With `CC(C)=CCc1cc(-c2coc3cc(O)ccc3c2=O)ccc1O` [Neobavaisoflavone] the inhibition at 110 µM [1] was 10% and the inhibition at 110 µM [2] was 21%.
In the case of `O=C(O)[C@H]1C2CCC(CC2)[C@@H]1Nc1nc(-c2c[nH]c3ncc(F)cc23)ncc1F` [Pimodivir], the inhibition at 110 µM [1] is reported as 7% and the inhibition at 110 µM [2] is reported as 9%.
With `O=c1c(O)c(-c2ccc(O)cc2O)oc2cc(O)cc(O)c12` [Morin] the inhibition at 110 µM [1] was 44% and the inhibition at 110 µM [2] was 17%.
With `O=c1[nH]c2ccccc2o1` [2‐Benzoxazolinone] the inhibition at 110 µM [1] was 24% and the inhibition at 110 µM [2] was 6%.
In the case of `O=c1ccc2ccc(O)c(O)c2o1` [Daphnetin], the inhibition at 110 µM [1] is reported as 0% and the inhibition at 110 µM [2] is reported as 1%.
`C[N+](C)(C)[C@@H](Cc1c[nH]c2ccccc12)C(=O)[O-]` [Hypaphorine] was tested, and the inhibition at 110 µM [1] was 0% and the inhibition at 110 µM [2] was 0%.
For `CO[C@H]1C(=O)[C@]2(C)[C@@H](OC)C[C@H]3OC[C@@]3(OC(C)=O)[C@H]2[C@H](OC(=O)c2ccccc2)[C@]2(O)C[C@H](OC(=O)[C@H](O)[C@@H](NC(=O)OC(C)(C)C)c3ccccc3)C(C)=C1C2(C)C` [Cabazitaxel], the inhibition at 110 µM [1] was 3% and the inhibition at 110 µM [2] was 9%.
In the case of `Cc1ccc(C(C)C)c(O)c1` [Thymol], the inhibition at 110 µM [1] is reported as 54% and the inhibition at 110 µM [2] is reported as 28%.
For `Cc1ncc(CO)c(CO)c1O` [Pyridoxine], the inhibition at 110 µM [1] was 8% and the inhibition at 110 µM [2] was 0%.
Work on `CCCCCCCCC(=O)NCc1ccc(O)c(OC)c1` [Nonivamide] yielded an inhibition at 110 µM [2] of 0%.
For `C=C(C)[C@H](C)c1cc(/C=C/C(=O)c2ccc(O)cc2)c(OC)cc1O` [Licochal cone E], the inhibition at 110 µM [1] was 5% and the inhibition at 110 µM [2] was 0%.
For `Nc1ccc(S(N)(=O)=O)cc1` [Sulfanilamide], the inhibition at 110 µM [1] was 21% and the inhibition at 110 µM [2] was 7%.
Compound `CNC(=O)c1cccnc1` [N‐Methylnicotinamide] has an inhibition at 110 µM [1] of 3% and an inhibition at 110 µM [2] of 0%.
`Cc1cccc(C)c1OCC(=O)N[C@@H](Cc1ccccc1)[C@@H](O)C[C@H](Cc1ccccc1)NC(=O)[C@H](C(C)C)N1CCCNC1=O` [Lopinavir] was tested, and the inhibition at 110 µM [1] was 17% and the inhibition at 110 µM [2] was 14%.
Compound `CC[C@H]1OC(=O)[C@H](C)[C@@H](O[C@H]2C[C@@](C)(OC)[C@@H](O)[C@H](C)O2)[C@H](C)[C@@H](O[C@@H]2O[C@H](C)C[C@H](N(C)C)[C@H]2O)[C@](C)(O)C[C@@H](C)CN(C)[C@H](C)[C@@H](O)[C@]1(C)O` [Azithromycin] has an inhibition at 110 µM [1] of 23% and an inhibition at 110 µM [2] of 37%.
For `C[C@@]12C[C@@]3(O)O[C@@H](O1)[C@]1(COC(=O)c4ccccc4)[C@H]3C[C@@]12O[C@@H]1O[C@H](COC(=O)c2ccccc2)[C@@H](O)[C@H](O)[C@H]1O` [Benzoylpaeoniflorin], the inhibition at 110 µM [1] was 10% and the inhibition at 110 µM [2] was 0%.
`COc1cc(O)c2c(=O)c(O)c(-c3ccc(O)c(O)c3)oc2c1` [Rhamnetin] was tested, and the inhibition at 110 µM [1] was 29% and the inhibition at 110 µM [2] was 12%.
For `OC[C@H]1O[C@@H](Oc2ccc3c(c2)OC[C@H]2c4cc5c(cc4O[C@@H]32)OCO5)[C@H](O)[C@@H](O)[C@@H]1O` [Trifolirhizin], the inhibition at 110 µM [1] was 11% and the inhibition at 110 µM [2] was 0%.
Work on `C=C1C[C@@]23CC[C@H]4[C@@](C)(CCC[C@@]4(C)C(=O)O)[C@@H]2CC[C@@H]1C3` [Kaurenoic acid] yielded an inhibition at 110 µM [1] of 0% and an inhibition at 110 µM [2] of 7%.
Work on `Cc1nnc(NS(=O)(=O)c2ccc(N)cc2)s1` [Sulfamethizole] yielded an inhibition at 110 µM [1] of 4% and an inhibition at 110 µM [2] of 0%.
With `CC(C)=CCc1c(-c2ccc(O)cc2O)oc2c3c(cc(O)c2c1=O)OC(C)(C)C=C3` [Morusin] the inhibition at 110 µM [1] was 33% and the inhibition at 110 µM [2] was 14%.
`COc1ccc(-c2cc(=O)c3c(O)cc(O)cc3o2)cc1` [Acacetin] showed an inhibition at 110 µM [1] of 9% and an inhibition at 110 µM [2] of 2%.
In the case of `C[C@H](O)[C@H](O)[C@H]1CNc2nc(N)[nH]c(=O)c2N1` [Tetrahydrobiopterin], the inhibition at 110 µM [1] is reported as 0% and the inhibition at 110 µM [2] is reported as 3%.
In the case of `O=c1c(O[C@@H]2O[C@H](CO)[C@@H](O)[C@H](O)[C@H]2O)c(-c2ccc(O)cc2)oc2cc(O)cc(O)c12` [Astragalin], the inhibition at 110 µM [1] is reported as 1% and the inhibition at 110 µM [2] is reported as 1%.
`Cn1c(=O)c2c(ncn2CC(=O)O)n(C)c1=O` [Acefylline] was tested, and the inhibition at 110 µM [1] was 0% and the inhibition at 110 µM [2] was 1%.
Work on `COc1cc(O)c2c(=O)c(O[C@@H]3O[C@H](CO)[C@@H](O)[C@H](O)[C@H]3O)c(-c3ccc(O[C@@H]4O[C@H](CO)[C@@H](O)[C@H](O)[C@H]4O)cc3)oc2c1` [Complanatuside] yielded an inhibition at 110 µM [1] of 0% and an inhibition at 110 µM [2] of 22%.
`COC(=O)C1=CO[C@@H](O[C@@H]2O[C@H](CO)[C@@H](O)[C@H](O)[C@H]2O)[C@H]2[C@@H]1[C@H](O)C[C@]2(C)OC(C)=O` [Barlerin] gave an inhibition at 110 µM [1] of 12% and an inhibition at 110 µM [2] of 26%.
Compound `COc1cc(O)c2c(c1)O[C@H](c1ccccc1)CC2=O` [Pinostrobin] has an inhibition at 110 µM [3] of 1% and an inhibition at 110 µM [4] of 7%.
With `COc1cc([C@@H]2c3cc4c(cc3[C@H](O)[C@H]3COC(=O)[C@H]23)OCO4)cc(OC)c1OC` [Podofilox] the inhibition at 110 µM [1] was 0% and the inhibition at 110 µM [2] was 9%.
Work on `CCOC(=O)C1=C[C@]2(CC)CCCN3CCc4c(n1c1ccccc41)[C@@H]32` [Vinpocetine] yielded an inhibition at 110 µM [1] of 0%.
In the case of `COC(=O)[C@@]12OC[C@]34[C@H]([C@@H](O)[C@@H]1O)[C@@]1(C)CC(=O)C(O)=C(C)[C@@H]1C[C@H]3OC(=O)[C@H](OC(=O)CC(C)C)[C@@H]24` [Bruceine A], the inhibition at 110 µM [3] is reported as 24% and the inhibition at 110 µM [4] is reported as 49%.
`Cc1c(C(N)=O)cc([N+](=O)[O-])cc1[N+](=O)[O-]` [Dinitolmide] showed an inhibition at 110 µM [1] of 16% and an inhibition at 110 µM [2] of 14%.
`O=c1ccn([C@@H]2O[C@H](CO)[C@@H](O)[C@H]2O)c(=O)[nH]1` [Uridine] gave an inhibition at 110 µM [1] of 0% and an inhibition at 110 µM [2] of 10%.
With `CCCCC1C(=O)N(c2ccccc2)N(c2ccc(O)cc2)C1=O` (centres unmarked) [Oxyphenbutazone] the inhibition at 110 µM [1] was 0% and the inhibition at 110 µM [2] was 0%.
In the case of `O=C1Nc2ccc(Cl)cc2[C@@](C#CC2CC2)(C(F)(F)F)O1` [Efavirenz], the inhibition at 110 µM [1] is reported as 29% and the inhibition at 110 µM [2] is reported as 29%.
